# Laboratory results from patent US20140288044A1, “COMPOSITIONS AND THERAPEUTIC USES OF IKK-RELATED KINASE EPSILON AND TANKBINDING KINASE 1 INHIBITORS” (Alzheimer's Institute of America, Inc., priority 2011, published 2014).
# Like-named read-outs stand apart in the source and are kept apart here.
# What was measured:
# [1] = biological target: T1, IKKε (Homo sapiens, UniProt Q14164); assay: In-vitro IKKε kinase assay (radiolabelled ATP, filterplate); type: biochemical
# T1 construct: His-tag (in-house Sf9 preparation) or GST-tag (purchased Invitrogen preparation); these are alternatives, not both on one protein; host or cells: Sf9 cells
# T1 sequence (Q14164 1-716): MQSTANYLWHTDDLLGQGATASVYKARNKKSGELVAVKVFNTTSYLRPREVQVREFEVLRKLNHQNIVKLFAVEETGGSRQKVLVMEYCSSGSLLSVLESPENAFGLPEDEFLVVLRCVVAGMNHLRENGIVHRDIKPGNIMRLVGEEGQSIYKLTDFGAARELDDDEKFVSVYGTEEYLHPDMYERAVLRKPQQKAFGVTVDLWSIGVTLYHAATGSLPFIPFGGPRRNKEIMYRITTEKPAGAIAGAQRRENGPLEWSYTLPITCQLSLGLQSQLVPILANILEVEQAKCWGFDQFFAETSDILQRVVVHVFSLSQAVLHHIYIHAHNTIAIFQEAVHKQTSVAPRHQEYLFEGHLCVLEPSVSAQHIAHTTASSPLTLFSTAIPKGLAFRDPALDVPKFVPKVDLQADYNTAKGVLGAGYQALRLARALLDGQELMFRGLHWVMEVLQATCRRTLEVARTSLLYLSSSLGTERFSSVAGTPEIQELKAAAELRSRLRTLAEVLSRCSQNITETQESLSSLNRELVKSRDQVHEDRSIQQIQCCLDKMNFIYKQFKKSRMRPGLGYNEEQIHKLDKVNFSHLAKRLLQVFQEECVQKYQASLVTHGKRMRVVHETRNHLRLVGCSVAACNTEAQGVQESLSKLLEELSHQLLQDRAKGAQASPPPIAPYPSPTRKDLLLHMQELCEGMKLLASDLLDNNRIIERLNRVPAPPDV
# In short: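 His-tagged IKKε from Sf9 cells or GST-tagged IKKε, with myelin basic protein, casein or dephosphorylated casein as substrate and 32 μM ATP (2× Km) plus [γ^33]ATP. "Normal" assay used 0.1 μg/ml enzyme; "sensitized" used 0.015 μg/ml with dephosphorylated casein only. Stopped after 30–45 min with phosphoric acid; P-81 filter counts normalized to DMSO after background subtraction.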
# [2] = tested on: IKKε-mediated phosphorylation of IRF3; assay: ELISA for in-situ phosphorylation of IRF3 (phospho-Ser396) in HEK293T cells cotransfected with IRF3 and IKKε; type: cell-based; conditions: Homo sapiens, HEK-293T, 20 h, HEK293T cells, 20 hours, read-out: IC50, in-situ IKKε-mediated phosphorylation of IRF3
# In short: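 HEK293T cells cotransfected with IRF3 and IKKε were treated with compound for 20 h, and lysates were assayed by ELISA for phospho-Ser396 IRF3, normalized to DMSO. Viability was checked in parallel by CellTiter-Glo. For TBK1, cells cotransfected with IRF7 and TBK1 were treated overnight and probed by Western blot for phospho-Ser477/Ser479 IRF7.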
# [3] = in-vitro IKKε kinase inhibition assays, given as 0.005 μM (5 nM), read-out: IKKε kinase inhibitory activity (IC50 value)
# [4] = range given from about 1 μM to about 250 nM
# [5] = "sensitized" assay, read-out: IC50, inhibition of the kinase activity of IKKε
"IC50 [1, 3]",IC50 [2],"IC50 [2, 4]",Structure (SMILES),"IC50 [1, 5]"
< 5 nM,100 to 250 nM,,"CC(c1ccc(Nc2nccc(-c3ccc(OC4CCOCC4)c(C#N)c3)n2)cn1)N1CC(O)C1 (stereo not shown) [Example Compound 63, 5-[2-({6-[1-(3-Hydroxyazetidin-1-yl)ethyl]pyridin-3-yl}amino)pyrimidin-4-yl]-2-(tetrahydro-2H-pyran-4-yloxy)benzonitrile]",
< 5 nM,,250 to 1000 nM,"N#Cc1cc(-c2ccnc(Nc3ccnc(CN4CC(O)C4)c3)n2)ccc1OC1CCOCC1 [Example Compound 70, 5-[2-({2-[(3-Hydroxyazetidin-1-yl)methyl]pyridin-4-yl}amino)pyrimidin-4-yl]-2-(tetrahydro-2H-pyran-4-yloxy)benzonitrile]",
< 5 nM,< 100 nM,,"N#Cc1cc(-c2ccnc(Nc3ccnc(CN4CCC(F)(F)C4)c3)n2)ccc1OC1CCOCC1 [Example Compound 71, 5-[2-({2-[(3,3-Difluoropyrrolidin-1-yl)methyl]pyridin-4-yl}amino)pyrimidin-4-yl]-2-(tetrahydro-2H-pyran-4-yloxy)benzonitrile]",
< 5 nM,< 100 nM,,"N#Cc1cc(-c2ccnc(Nc3ccc(-n4ccnc4)nc3)n2)ccc1OC1CCOCC1 [Example Compound 75, 5-(2-{[6-(1H-Imidazol-1-yl)pyridin-3-yl]amino}pyrimidin-4-yl)-2-(tetrahydro-2H-pyran-4-yloxy)benzonitrile]",
< 5 nM,100 to 250 nM,,"N#Cc1cc(-c2ccnc(Nc3ccc(-n4cncn4)nc3)n2)ccc1OC1CCOCC1 [Example Compound 76, 2-(Tetrahydro-2H-pyran-4-yloxy)-5-(2-{[6-(1H-1,2,4-triazol-1-yl)pyridin-3-yl]amino}pyrimidin-4-yl)benzonitrile]",< 5 nM
< 5 nM,< 100 nM,,"Cn1cc(-c2ccc(Nc3nccc(-c4ccc(OC5CCOCC5)c(C#N)c4)n3)cn2)cn1 [Example Compound 77, 5-(2-{[6-(1-Methyl-1H-pyrazol-4-yl)pyridin-3-yl]amino}pyrimidin-4-yl)-2-(tetrahydro-2H-pyran-4-yloxy)benzonitrile]",
< 5 nM,< 100 nM,,"N#Cc1cc(-c2ccnc(Nc3ccc(-c4cn[nH]c4)nc3)n2)ccc1OC1CCOCC1 [Example Compound 78, 5-(2-{[6-(1H-Pyrazol-4-yl)pyridin-3-yl]amino}pyrimidin-4-yl)-2-(tetrahydro-2H-pyran-4-yloxy)benzonitrile]",
< 5 nM,,250 to 1000 nM,"N#Cc1cc(-c2ccnc(Nc3ccc(-c4cccnc4)nc3)n2)ccc1OC1CCOCC1 [Example Compound 79, 5-[2-(2,3′-Bipyridin-5-ylamino)pyrimidin-4-yl]-2-(tetrahydro-2H-pyran-4-yloxy)benzonitrile]",< 5 nM
< 5 nM,< 100 nM,,"COCCNc1ncc(-c2ccc(Nc3nccc(-c4ccc(OC5CCOCC5)c(C#N)c4)n3)cn2)cn1 [Example Compound 80, 5-{2-[(6-{2-[(2-Methoxyethyl)amino]pyrimidin-5-yl}pyridin-3-yl)amino]pyrimidin-4-yl}-2-(tetrahydro-2H-pyran-4-yloxy)benzonitrile]",
< 5 nM,< 100 nM,,"Cn1cc(-c2cc(Nc3nccc(-c4ccc(OC5CCOCC5)c(C#N)c4)n3)ccn2)cn1 [Example Compound 82, 5-(2-{[2-(1-Methyl-1H-pyrazol-4-yl)pyridin-4-yl]amino}pyrimidin-4-yl)-2-(tetrahydro-2H-pyran-4-yloxy)benzonitrile]",< 5 nM
< 5 nM,100 to 250 nM,,"N#Cc1cc(-c2ccnc(Nc3ccnc(-c4cn[nH]c4)c3)n2)ccc1OC1CCOCC1 [Example Compound 83, 5-(2-{[2-(1H-Pyrazol-4-yl)pyridin-4-yl]amino}pyrimidin-4-yl)-2-(tetrahydro-2H-pyran-4-yloxy)benzonitrile]",< 5 nM
< 5 nM,,250 to 1000 nM,"CN(C)C1CCN(c2ccc(Nc3nccc(-c4ccc(OC5CCOCC5)c(C#N)c4)n3)nn2)C1 (stereo not shown) [Example Compound 87, 5-[2-({6-[3-(Dimethylamino)pyrrolidin-1-yl]pyridazin-3-yl}amino)pyrimidin-4-yl]-2-(tetrahydro-2H-pyran-4-yloxy)benzonitrile]",< 5 nM
< 5 nM,,250 to 1000 nM,"N#Cc1cc(-c2ccnc(Nc3ccc(N4CCOCC4)nn3)n2)ccc1OC1CCOCC1 [Example Compound 88, 5-(2-{[6-(Morpholin-4-yl)pyridazin-3-yl]amino}pyrimidin-4-yl)-2-(tetrahydro-2H-pyran-4-yloxy)benzonitrile]",< 5 nM
< 5 nM,100 to 250 nM,,"N#Cc1cc(-c2ccnc(Nc3ccc(/C=C/CN4CCOCC4)nc3)n2)ccc1OC1CCOCC1 [Example Compound 94, 5-[2-({6-[(1E)-3-(Morpholin-4-yl)prop-1-en-1-yl]pyridin-3-yl}amino)pyrimidin-4-yl]-2-(tetrahydro-2H-pyran-4-yloxy)benzonitrile]",
< 5 nM,100 to 250 nM,,"COC1CN(C(=O)c2ncc(Nc3nccc(-c4ccc(OC5CCOCC5)c(C#N)c4)n3)n2C)C1 [Example Compound 102, 5-[2-({2-[(3-Methoxyazetidin-1-yl)carbonyl]-1-methyl-1H-imidazol-5-yl}amino)pyrimidin-4-yl]-2-(tetrahydro-2H-pyran-4-yloxy)benzonitrile]",< 5 nM
< 5 nM,100 to 250 nM,,"CC(C)COc1ccc(-c2ccnc(Nc3ccc(N(C)CCO)nc3)n2)cc1C#N [Example Compound 109, 5-[2-({6-[(2-Hydroxyethyl)(methyl)amino]pyridin-3-yl}amino)pyrimidin-4-yl]-2-(2-methylpropoxy)benzonitrile]",< 5 nM
< 5 nM,,250 to 1000 nM,"CCN(CC)c1ccc(Nc2nccc(-c3ccc(O[C@@H]4CCN(C(=O)CO)C4)c(C#N)c3)n2)cn1 [Example Compound 117, 5-(2-{[6-(Diethylamino)pyridin-3-yl]amino}pyrimidin-4-yl)-2-{[(3R)-1-(hydroxyacetyl)pyrrolidin-3-yl]oxy}benzonitrile]",< 5 nM
< 5 nM,100 to 250 nM,,"N#Cc1cc(-c2ccnc(Nc3ccc(N4CCOCC4)nc3)n2)ccc1O[C@@H]1CCN(C(=O)CO)C1 [Example Compound 119, 2-{[(3R)-1-(Hydroxyacetyl)pyrrolidin-3-yl]oxy}-5-(2-{[6-(morpholin-4-yl)pyridin-3-yl]amino}pyrimidin-4-yl)benzonitrile]",< 5 nM
< 5 nM,,250 to 1000 nM,"Cc1cc(Nc2nccc(-c3ccc(O[C@@H]4CCN(C(=O)CO)C4)c(C#N)c3)n2)ccn1 [Example Compound 123, 2-{[(3R)-1-(Hydroxyacetyl)pyrrolidin-3-yl]oxy}-5-{2-[(2-methylpyridin-4-yl)amino]pyrimidin-4-yl}benzonitrile]",
< 5 nM,1000 to 5000 nM,,"Cn1cc(-c2cc(Nc3nccc(-c4ccc(O[C@@H]5CCN(C(=O)CO)C5)c(C#N)c4)n3)ccn2)cn1 [Example Compound 126, 2-{[(3R)-1-(Hydroxyacetyl)pyrrolidin-3-yl]oxy}-5-(2-{[2-(1-methyl-1H-pyrazol-4-yl)pyridin-4-yl]amino}pyrimidin-4-yl)benzonitrile]",
< 5 nM,1000 to 5000 nM,,"Cc1ccc(Nc2nccc(-c3ccc(OC4CCN(C(=O)[C@H](C)O)CC4)c(C#N)c3)n2)cn1 [Example Compound 128, 2-({1-[(2S)-2-Hydroxypropanoyl]piperidin-4-yl}oxy)-5-{2-[(6-methylpyridin-3-yl)amino]pyrimidin-4-yl}benzonitrile]",< 5 nM
< 5 nM,1000 to 5000 nM,,"Cc1ccc(Nc2nccc(-c3ccc(OC4CCN(C(=O)CO)CC4)c(C#N)c3)n2)cn1 [Example Compound 130, 2-{[1-(Hydroxyacetyl)piperidin-4-yl]oxy}-5-{2-[(6-methylpyridin-3-yl)amino]pyrimidin-4-yl}benzonitrile]",
